Experimental data: patent US7932270B2 (Cytokinetics, Inc., priority 2006, dated 2011)

Biological target: T1, chicken gizzard smooth muscle myosin subfragment-1 chemically crosslinked to cardiac or skeletal actin (Gallus gallus, UniProt P10587)
T1 construct: chicken gizzard smooth muscle myosin subfragment-1; from tissue; host or cells: chicken gizzard
Assay: Smooth muscle myosin ATPase dose response assay (pyruvate kinase/horseradish peroxidase/pyruvate oxidase-coupled, amplex red fluorescence)
Type: biochemical
Conditions: read-out: IC50 Arithmetic Mean
Protocol: In Vitro Model of Dose Dependent Smooth Muscle Myosin ATPase Modulation
Screening assays were performed using a pyruvate kinase and lactate dehydrogenase-coupled ATPase assay containing the following reagents: Potassium PIPES (50 mM), MgCl2 (3 mM), KCl (100 mM), ATP (0.15 mM), DTT (1 mM), BSA (0.1 mg/ml), NADH (0.5 mM), PEP (1.5 mM), pyruvate kinase (4 U/ml), lactate dehydrogenase (8 U/ml), and antifoam (50 ppm) (concentrations expressed are final assay concentrations). The pH was adjusted to 6.80 at 22° C. by addition of potassium hydroxide. Lead optimization assays were performed with a more sensitive pyruvate kinase/horseradish peroxidase/pyruvate oxidase-coupled ATPase assay containing the following reagents: Potassium PIPES (12 mM), MgCl2 (2 mM), KCl (100 mM), ATP (0.15 mM), BSA (0.05 mg/ml), potassium phosphate (2 mM), amplex red (0.1 mM), PEP (0.1 mM), pyruvate kinase (4 U/ml), horseradish peroxidase (0.5 U/ml), pyruvate oxidase (0.5 U/ml), and antifoam (50 ppm) (concentrations expressed are final assay concentrations). The pH was adjusted to 7.00 at 22° C. by addition of potassium hydroxide.
The protein components specific to this assay are chicken gizzard smooth muscle myosin subfragment-1 that has been chemically crosslinked to either cardiac or skeletal actin using an excess of 1-Ethyl-3-[3-dimethylaminopropyl]carbodiimide hydrochloride and N-hydroxysuccinimide. The exact concentration of the crosslinked smooth muscle myosin in the assay is determined empirically, by titration to achieve a desired rate of ATP hydrolysis. The concentration varies between protein preparations due to variations in the fraction of active molecules in each preparation.
Compound dose response assays are performed by first preparing a dilution series of test compound, each with an assay mixture containing potassium PIPES, MgCl2, KCl, ATP, BSA, potassium phosphate, amplex red, PEP, crosslinked smooth muscle actomyosin (subfragment-1), antifoam, and water. The assay is started by adding an equal volume of solution containing potassium Pipes, MgCl2, KCl, BSA, potassium phosphate, pyruvate kinase, horseradish peroxidase, pyruvate oxidase, antifoam, and water. ATP hydrolysis is monitored by measuring the fluorescence of amplex red (excitation at 480 nm, emission at 615 nm). The resulting dose response curve is fit by the 4 parameter equation y=Bottom+((Top-Bottom)/(1+((IC50/X)^Hill))). The IC50 is defined as the concentration at which ATPase activity is midway between the top and bottom of the dose response curve.

T1 sequence (P02607 2-151): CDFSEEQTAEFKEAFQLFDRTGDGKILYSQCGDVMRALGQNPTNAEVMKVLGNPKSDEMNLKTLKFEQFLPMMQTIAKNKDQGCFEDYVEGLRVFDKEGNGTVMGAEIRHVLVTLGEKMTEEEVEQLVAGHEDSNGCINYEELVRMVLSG
T1 sequence (P10587 84-789): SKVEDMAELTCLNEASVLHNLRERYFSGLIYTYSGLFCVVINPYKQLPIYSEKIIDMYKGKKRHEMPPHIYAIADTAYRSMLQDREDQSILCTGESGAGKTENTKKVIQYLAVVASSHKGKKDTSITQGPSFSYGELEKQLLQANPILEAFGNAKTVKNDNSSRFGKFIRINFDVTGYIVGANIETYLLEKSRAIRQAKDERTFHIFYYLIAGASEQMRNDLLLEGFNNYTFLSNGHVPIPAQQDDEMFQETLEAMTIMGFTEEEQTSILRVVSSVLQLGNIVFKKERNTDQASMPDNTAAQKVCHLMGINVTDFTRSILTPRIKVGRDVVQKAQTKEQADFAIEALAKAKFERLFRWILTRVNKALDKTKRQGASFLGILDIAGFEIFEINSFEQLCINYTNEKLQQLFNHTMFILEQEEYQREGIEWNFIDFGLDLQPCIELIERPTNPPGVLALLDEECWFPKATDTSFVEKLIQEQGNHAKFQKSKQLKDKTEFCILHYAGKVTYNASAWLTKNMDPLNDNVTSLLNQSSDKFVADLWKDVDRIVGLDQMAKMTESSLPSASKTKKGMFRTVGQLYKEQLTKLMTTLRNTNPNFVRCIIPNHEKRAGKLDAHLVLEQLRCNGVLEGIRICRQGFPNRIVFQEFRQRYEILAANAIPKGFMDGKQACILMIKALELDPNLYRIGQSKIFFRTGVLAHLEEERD

`N#Cc1ccccc1-c1ccc(CC(=O)NCc2cccnc2)c(NCCc2cccc(F)c2)n1` [2-(6-(2-cyanophenyl)-2-{[2-(3-fluorophenyl)ethyl]amino}(3-pyridyl))-N-(3-pyridylmethyl)acetamide] and `NC(=O)c1ccccc1-c1ccc(C(=O)NCc2cccnc2)c(NCCc2cccc(F)c2)n1` [2-(6-{[2-(3-fluorophenyl)ethyl]amino}-5-[N-(3-pyridylmethyl)carbamoyl]-2-pyridyl)benzamide] are within 1.5-fold of each other in IC50: 13200 nM for the first, 16400 nM for the second.

First: Cn1cc(-c2nc(NCCc3cccc(F)c3)c(C(=O)NC[C@H]3CCN3C(=O)COC(=O)CNC(=O)OC(C)(C)C)cc2F)cn1 [2-((2R)-2-{[(5-fluoro-2-{[2-(3-fluorophenyl)ethyl]amino}-6-(1-methylpyrazol-4-yl)(3-pyridyl))carbonylamino]methyl}azetidinyl)-2-oxoethyl 2-[(tert-butoxy)carbonylamino]acetate]
Second: Cn1cc(-c2nc(NCCc3cccc(F)c3)c(C(=O)NC[C@H]3CCN3C(=O)COC(=O)CN)cc2F)cn1 [2-((2R)-2-{[(5-fluoro-2-{[2-(3-fluorophenyl)ethyl]amino}-6-(1-methylpyrazol-4-yl)(3-pyridyl))carbonylamino]methyl}azetidinyl)-2-oxoethyl 2-aminoacetate]
The IC50 of the first is 4.2-fold higher: 191 nM for the first, 45 nM for the second.

Going from `COP(=O)(OC)OCC(=O)N1CC[C@@H]1CNC(=O)c1cc(F)c(-c2cnn(C)c2)nc1NCCc1cccc(F)c1` [2-((2R)-2-{[(5-fluoro-2-{[2-(3-fluorophenyl)ethyl]amino}-6-(1-methylpyrazol-4-yl)(3-pyridyl))carbonylamino]methyl}azetidinyl)-2-oxoethyl dimethyl phosphate] to `Cn1cc(-c2nc(NCCc3cccc(F)c3)c(C(=O)NCCCNC(=O)CN)cc2F)cn1` [2-amino-N-{3-[(5-fluoro-2-{[2-(3-fluorophenyl)ethyl]amino}-6-(1-methylpyrazol-4-yl)(3-pyridyl))carbonylamino]propyl}acetamide], the IC50 rises from 400 nM to 2490 nM (6.2-fold). The first is the more potent here.

`NCC1CCCCN1C(=O)c1ccc(-c2ccccc2)nc1NCCc1ccccn1` (centres unmarked) [2-(aminomethyl)piperidyl 6-phenyl-2-[(2-(2-pyridyl)ethyl)amino](3-pyridyl) ketone] and `CS(=O)(=O)NCC1CCCCN1C(=O)c1ccc(-c2ccccc2)nc1NCCc1ccccn1` (centres unmarked) [2-{[(methylsulfonyl)amino]methyl}piperidyl 6-phenyl-2-[(2-(2-pyridyl)ethyl)amino](3-pyridyl) ketone] are within 1.5-fold of each other in IC50: 18200 nM for the first, 22200 nM for the second.

First: NCCCN1C(=O)CC[C@@H]1CNC(=O)c1ccc(-c2ccccc2C(N)=O)nc1NCCc1cccc(F)c1 [2-[5-(N-{[(2R)-1-(3-aminopropyl)-5-oxopyrrolidin-2-yl]methyl}carbamoyl)-6-{[2-(3-fluorophenyl)ethyl]amino}-2-pyridyl]benzamide]
Second: N#Cc1ccccc1-c1ccc(C(=O)NC[C@H]2CCCN2C(=O)OCCN)c(NCCc2cccc(F)c2)n1 [2-aminoethyl (2R)-2-{[(6-(2-cyanophenyl)-2-{[2-(3-fluorophenyl)ethyl]amino}(3-pyridyl))carbonylamino]methyl}pyrrolidinecarboxylate]
The IC50 of the first is 490-fold higher: 13200 nM for the first, 27 nM for the second.

`CNC(=O)CNC(=O)c1ccc(-c2cnn(C)c2)nc1NCCc1cccc(F)c1` [2-[(2-{[2-(3-fluorophenyl)ethyl]amino}6-(1-methylpyrazol-4-yl)(3-pyridyl))carbonylamino]-N-methylacetamide] and `CNC(=O)CNC(=O)c1ccc(-c2cn[nH]c2)nc1NCCc1cccc(F)c1` [2-[(2-{[2-(3-fluorophenyl)ethyl]amino}-6-pyrazol-4-yl(3-pyridyl))carbonylamino]-N-methylacetamide] are within 1.5-fold of each other in IC50: 350 nM for the first, 328 nM for the second.

First: CNC(=O)CNC(=O)c1ccc(-c2ccc(CO)s2)nc1NCCc1cccc(F)c1 [2-[(2-{[2-(3-fluorophenyl)ethyl]amino}-6-[5-(hydroxymethyl)(2-thienyl)](3-pyridyl))carbonylamino]-N-methylacetamide]
Second: CNC(=O)CNC(=O)c1ccc(-c2ccccc2C#N)nc1NCCc1cccc(F)c1 [2-[(6-(2-cyanophenyl)-2-{[2-(3-fluorophenyl)ethyl]amino}(3-pyridyl))carbonylamino]-N-methylacetamide]
The IC50 of the first is 2.5-fold higher: 254 nM for the first, 102 nM for the second. The second is the more potent here.

Going from `CNC(=O)CNC(=O)c1cc(F)c(-c2cn[nH]c2)nc1NCCc1cccc(F)c1` [2-[(5-fluoro-2-{[2-(3-fluorophenyl)ethyl]amino}-6-pyrazol-4-yl(3-pyridyl))carbonylamino]-N-methylacetamide] to `Cn1cc(-c2nc(NCCc3cccc(F)c3)c(C(=O)NCCCNC(=O)CNC(=O)OC(C)(C)C)cc2F)cn1` [2-[(tert-butoxy)carbonylamino]-N-{3-[(5-fluoro-2-{[2-(3-fluorophenyl)ethyl]amino}-6-(1-methylpyrazol-4-yl)(3-pyridyl))carbonylamino]propyl}acetamide], the IC50 rises from 65 nM to 768 nM (12-fold).

First: CN(C)C(=O)CNC(=O)c1ccc(-c2ccccc2C#N)nc1NCCc1cccc(F)c1 [2-[(6-(2-cyanophenyl)-2-{[2-(3-fluorophenyl)ethyl]amino}(3-pyridyl))carbonylamino]-N,N-dimethylacetamide]
Second: CN(CCNC(=O)c1ccc(-c2ccccc2C#N)nc1NCCc1cccc(F)c1)C(=O)CN [2-amino-N-{2-[(6-(2-cyanophenyl)-2-{[2-(3-fluorophenyl)ethyl]amino}(3-pyridyl))carbonylamino]ethyl}-N-methylacetamide]
The IC50 of the first is 2.6-fold lower: 532 nM for the first, 1370 nM for the second.

Going from `N#Cc1ccccc1-c1ccc(C(=O)NCC(=O)NCCO)c(NCCc2cccc(F)c2)n1` [2-[(6-(2-cyanophenyl)-2-{[2-(3-fluorophenyl)ethyl]amino}(3-pyridyl))carbonylamino]-N-(2-hydroxyethyl)acetamide] to `N#Cc1ccccc1-c1ccc(C(=O)NCC(=O)NCCCO)c(NCCc2cccc(F)c2)n1` [2-[(6-(2-cyanophenyl)-2-{[2-(3-fluorophenyl)ethyl]amino}(3-pyridyl))carbonylamino]-N-(3-hydroxypropyl)acetamide], the IC50 rises from 2070 nM to 5840 nM (2.8-fold). The first is the more potent here.

Going from `CS(=O)(=O)NC(=O)CNC(=O)c1ccc(-c2ccccc2C#N)nc1NCCc1cccc(F)c1` [2-[(6-(2-cyanophenyl)-2-{[2-(3-fluorophenyl)ethyl]amino}(3-pyridyl))carbonylamino]-N-(methylsulfonyl)acetamide] to `CNCCNC(=O)CNC(=O)c1ccc(-c2ccccc2C#N)nc1NCCc1cccc(F)c1` [2-[(6-(2-cyanophenyl)-2-{[2-(3-fluorophenyl)ethyl]amino}(3-pyridyl))carbonylamino]-N-[2-(methylamino)ethyl]acetamide], the IC50 falls from 24900 nM to 11100 nM (2.2-fold).

Going from `CN(CCNC(=O)c1ccc(-c2ccccc2C#N)nc1NCCc1cccc(F)c1)C(=O)CNC(=O)OC(C)(C)C` [2-[(tert-butoxy)carbonylamino]-N-{2-[(6-(2-cyanophenyl)-2-{[2-(3-fluorophenyl)ethyl]amino}(3-pyridyl))carbonylamino]ethyl}-N-methylacetamide] to `N#Cc1ccccc1-c1ccc(C(=O)NCCNC(=O)CN)c(NCCc2cccc(F)c2)n1` [2-amino-N-{2-[(6-(2-cyanophenyl)-2-{[2-(3-fluorophenyl)ethyl]amino}(3-pyridyl))carbonylamino]ethyl}acetamide], the IC50 falls from 15300 nM to 1230 nM (12-fold). The second is the more potent here.

`NCC(O)c1ccc(-c2ccccc2)nc1NCCc1cccc(F)c1` (centres unmarked) [2-amino-1-(2-{[2-(3-fluorophenyl)ethyl]amino}-6-phenyl(3-pyridyl))ethan-1-ol] and `NC(=O)CNCC(O)c1ccc(-c2ccccc2)nc1NCCc1cccc(F)c1` (centres unmarked) [2-{[2-(2-{[2-(3-fluorophenyl)ethyl]amino}-6-phenyl(3-pyridyl))-2-hydroxyethyl]amino}acetamide] are within 1.5-fold of each other in IC50: 52500 nM for the first, 51600 nM for the second.

Going from `N#Cc1ccccc1-c1ccc(C(=O)NC[C@H]2CCCCN2C(=O)OCCN)c(NCCc2cccc(F)c2)n1` [2-aminoethyl (2R)-2-{[(6-(2-cyanophenyl)-2-{[2-(3-fluorophenyl)ethyl]amino}(3-pyridyl))carbonylamino]methyl}piperidinecarboxylate] to `N#Cc1ccccc1-c1ccc(C(=O)NC[C@H]2CCCCN2C(=O)OCCCl)c(NCCc2cccc(F)c2)n1` [2-chloroethyl (2R)-2-{[(6-(2-cyanophenyl)-2-{[2-(3-fluorophenyl)ethyl]amino}(3-pyridyl))carbonylamino]methyl}piperidinecarboxylate], the IC50 rises from 91 nM to 2690 nM (30-fold).

Compound `NC(=O)c1cccc(CCNc2nc(-c3ccccc3)ccc2C(=O)NCc2cccnc2)c1` [3-[2-({6-phenyl-3-[N-(3-pyridylmethyl)carbamoyl]-2-pyridyl}amino)ethyl]benzamide] has an IC50 of 11500 nM.
